Laboratory results taken from US10111935B2, “Agent for capturing tumor cells and methods of use thereof” (priority 2014, dated 2018).
Read-outs that look alike come from different tables or passages of the source.

Tested on: SKOV3 cells
Assay: IC50 concentration of standard ovarian cancer chemotherapy
Format: cell-based

SMILES: N.N.O=C([O-])C1(C(=O)[O-])CCC1.[Pt+2] [Carboplatin]
- IC50 (Carboplatin individually, read-out: IC50): 10 µM
- IC50 (Carboplatin part of the combination, read-out: IC50 in combination Paclitaxel+Carboplatin): 1 µM
